The values below come from article PMC12621043, “Un-LOK-ing a New Approach for Conformational Selective Targeting of STK10 (LOK)” (ACS Medicinal Chemistry Letters, 2025).

Holding throughout (assay): DSF Tm panel
Holding throughout (type): binding
Holding throughout (settings): 10 μM compound

Test [1] addresses T1, CAMK4A (Homo sapiens, UniProt Q16566).
T1 construct: purchased in-house DSF kinase panel (SGC-style construct names; the trailing letter is the construct ID)
T1 sequence (Q16566 1-473): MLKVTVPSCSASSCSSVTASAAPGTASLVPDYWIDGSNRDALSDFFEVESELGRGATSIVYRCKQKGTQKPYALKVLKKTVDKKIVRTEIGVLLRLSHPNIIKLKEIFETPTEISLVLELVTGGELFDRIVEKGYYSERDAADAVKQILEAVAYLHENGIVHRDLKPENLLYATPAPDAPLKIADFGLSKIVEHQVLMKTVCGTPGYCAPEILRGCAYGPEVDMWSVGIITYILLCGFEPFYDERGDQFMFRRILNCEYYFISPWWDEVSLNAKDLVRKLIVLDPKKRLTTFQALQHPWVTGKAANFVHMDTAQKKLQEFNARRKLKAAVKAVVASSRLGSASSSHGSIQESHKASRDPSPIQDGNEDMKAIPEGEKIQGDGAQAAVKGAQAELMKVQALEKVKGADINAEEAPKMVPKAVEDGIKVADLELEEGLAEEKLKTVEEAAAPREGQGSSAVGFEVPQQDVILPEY
How it is done: (§1) The synthesized urea-based derivatives were evaluated in a panel of kinases by differential scanning fluorescence (DSF) to investigate their selectivity profile. A positive ΔT m in the DSF assay indicates stabilization of the protein upon ligand binding in comparison to its apo state, with higher thermal shifts generally correlating with stronger binding. For this purpose, we used our internal kinase selectivity panel (∼90 kinases) along with staurosporine as a positive control. […] This was also reflected in the overall low selectivity score (S) throughout the series, which is determined by the ratio between the number of kinases that are stabilized above 5 °C and the total number of kinases tested (Figure ). Motivated by these findings, we further validated the entire series by orthogonal binding and activity assays to determine the in vitro and cellular potency and selectivity of the developed series in comparison to the selected reference compounds. […]
(§2) was performed as previously described.[1,2] Briefly, recombinant protein kinase domains at a concentration of 2 μM were mixed with 10 μM compound in a buffer containing 20 mM HEPES, […]
(§3) probe (1 µl per mL). Subsequently, temperature-dependent protein unfolding profiles were […]
(§4) emission filters were set to 465 nm and 590 nm, respectively. The temperature was raised with a step rate of 3 °C per minute. […]
(§5) inflection point of the transition curve. […]
(§6) previously.[3] In brief, STK10, STK3, STK4 and SLK were obtained as plasmids cloned in […]
(§7) Plasmids were transfected into
(§8) KD concentration taken from TracerDB (tracerdb.org)[4] were pipetted into white 384-well

Test [2] deals with T2, PLK4A (Homo sapiens, UniProt O00444).
T2 construct: purchased in-house DSF kinase panel (SGC-style construct names; the trailing letter is the construct ID)
T2 sequence (O00444 2-275): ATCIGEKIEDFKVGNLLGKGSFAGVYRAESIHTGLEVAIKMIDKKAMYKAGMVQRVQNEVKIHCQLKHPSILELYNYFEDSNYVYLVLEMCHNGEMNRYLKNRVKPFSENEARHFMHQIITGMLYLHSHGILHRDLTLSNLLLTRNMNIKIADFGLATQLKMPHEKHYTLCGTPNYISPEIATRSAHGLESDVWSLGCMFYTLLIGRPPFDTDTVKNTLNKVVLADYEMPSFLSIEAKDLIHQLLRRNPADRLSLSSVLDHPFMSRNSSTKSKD
On the procedure: as §1, §2, §3, §4, §5, §6, §7, §8

In test [3] the target is T3, STK6A (Homo sapiens, UniProt O14965).
T3 construct: purchased in-house DSF kinase panel (SGC-style construct names; the trailing letter is the construct ID)
T3 sequence (O14965 122-403): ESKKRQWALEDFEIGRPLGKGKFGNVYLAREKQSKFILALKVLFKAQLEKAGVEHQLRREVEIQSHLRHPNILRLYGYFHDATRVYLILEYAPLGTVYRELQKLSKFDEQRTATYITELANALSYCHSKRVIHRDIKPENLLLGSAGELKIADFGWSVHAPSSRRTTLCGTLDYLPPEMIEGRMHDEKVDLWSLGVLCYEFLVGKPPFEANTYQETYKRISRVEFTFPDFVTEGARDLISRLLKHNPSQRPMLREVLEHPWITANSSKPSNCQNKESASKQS
How it is done:
as §1, §2, §3, §4, §5, §6, §7, §8

In test [4] the target is T4, TTKA (Homo sapiens, UniProt P33981).
T4 construct: purchased in-house DSF kinase panel (SGC-style construct names; the trailing letter is the construct ID)
T4 sequence (P33981 519-808): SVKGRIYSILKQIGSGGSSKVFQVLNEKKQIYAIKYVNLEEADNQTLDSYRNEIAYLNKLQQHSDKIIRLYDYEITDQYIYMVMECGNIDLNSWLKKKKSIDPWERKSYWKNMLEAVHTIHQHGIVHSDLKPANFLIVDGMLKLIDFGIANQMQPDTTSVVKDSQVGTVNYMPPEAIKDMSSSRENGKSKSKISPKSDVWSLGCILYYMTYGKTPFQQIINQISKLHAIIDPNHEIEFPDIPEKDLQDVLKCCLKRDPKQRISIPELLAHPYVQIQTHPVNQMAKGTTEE
How it is done: as §1, §2, §3, §4, §5, §6, §7, §8

For test [5], the target named is T5, MAP3K5A (Homo sapiens, UniProt Q99683).
T5 construct: purchased in-house DSF kinase panel (SGC-style construct names; the trailing letter is the construct ID)

Test [6] deals with T6, CAMK2BA (Homo sapiens, UniProt Q13554).
T6 construct: purchased in-house DSF kinase panel (SGC-style construct names; the trailing letter is the construct ID)

The target of test [7] is T7, PIM1 (PIM1A) (Homo sapiens, UniProt P11309).
T7 construct: purchased in-house DSF kinase panel (SGC-style construct names; the trailing letter is the construct ID)

Test [8] deals with T8, DCAMKL1A (Homo sapiens, UniProt O15075).
T8 construct: purchased in-house DSF kinase panel (SGC-style construct names; the trailing letter is the construct ID)
T8 sequence (O15075 372-649): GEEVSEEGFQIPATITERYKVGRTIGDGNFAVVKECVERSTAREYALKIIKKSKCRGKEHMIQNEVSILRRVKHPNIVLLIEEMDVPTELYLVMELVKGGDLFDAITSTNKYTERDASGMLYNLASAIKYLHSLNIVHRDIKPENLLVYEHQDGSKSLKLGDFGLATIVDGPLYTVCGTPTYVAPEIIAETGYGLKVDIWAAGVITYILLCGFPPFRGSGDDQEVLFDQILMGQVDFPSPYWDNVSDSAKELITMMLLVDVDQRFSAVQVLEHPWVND

The target in test [9] is T9, VRK1A (Homo sapiens, UniProt Q99986).
T9 construct: purchased in-house DSF kinase panel (SGC-style construct names; the trailing letter is the construct ID)
T9 sequence (Q99986 1-396): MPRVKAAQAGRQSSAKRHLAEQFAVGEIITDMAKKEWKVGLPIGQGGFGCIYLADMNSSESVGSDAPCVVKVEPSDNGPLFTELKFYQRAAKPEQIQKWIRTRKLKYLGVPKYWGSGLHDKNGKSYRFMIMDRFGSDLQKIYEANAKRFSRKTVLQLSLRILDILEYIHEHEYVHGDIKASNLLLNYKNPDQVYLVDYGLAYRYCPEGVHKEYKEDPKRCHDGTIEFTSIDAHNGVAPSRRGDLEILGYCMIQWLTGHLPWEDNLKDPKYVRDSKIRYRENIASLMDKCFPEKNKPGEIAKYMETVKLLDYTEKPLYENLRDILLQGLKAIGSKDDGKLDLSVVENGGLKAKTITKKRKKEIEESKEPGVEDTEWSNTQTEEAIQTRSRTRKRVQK

T6 sequence (Q13554 11-303): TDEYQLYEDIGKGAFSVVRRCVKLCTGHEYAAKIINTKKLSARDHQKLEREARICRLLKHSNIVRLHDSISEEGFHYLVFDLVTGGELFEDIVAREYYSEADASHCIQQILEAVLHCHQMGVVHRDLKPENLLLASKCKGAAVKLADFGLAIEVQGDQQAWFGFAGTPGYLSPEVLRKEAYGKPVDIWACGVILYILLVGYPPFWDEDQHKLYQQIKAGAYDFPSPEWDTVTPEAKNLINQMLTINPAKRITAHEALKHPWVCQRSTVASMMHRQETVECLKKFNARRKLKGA
T7 sequence (P11309 whole entry): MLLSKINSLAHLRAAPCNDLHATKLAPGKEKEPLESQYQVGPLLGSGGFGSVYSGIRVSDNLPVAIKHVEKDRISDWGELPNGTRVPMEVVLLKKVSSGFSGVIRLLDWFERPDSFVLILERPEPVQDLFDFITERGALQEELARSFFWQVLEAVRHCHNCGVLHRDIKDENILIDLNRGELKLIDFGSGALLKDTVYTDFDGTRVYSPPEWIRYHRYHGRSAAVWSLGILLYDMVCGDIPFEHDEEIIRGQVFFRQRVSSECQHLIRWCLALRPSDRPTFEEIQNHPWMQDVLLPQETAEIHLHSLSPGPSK
T5 sequence (Q99683 659-951): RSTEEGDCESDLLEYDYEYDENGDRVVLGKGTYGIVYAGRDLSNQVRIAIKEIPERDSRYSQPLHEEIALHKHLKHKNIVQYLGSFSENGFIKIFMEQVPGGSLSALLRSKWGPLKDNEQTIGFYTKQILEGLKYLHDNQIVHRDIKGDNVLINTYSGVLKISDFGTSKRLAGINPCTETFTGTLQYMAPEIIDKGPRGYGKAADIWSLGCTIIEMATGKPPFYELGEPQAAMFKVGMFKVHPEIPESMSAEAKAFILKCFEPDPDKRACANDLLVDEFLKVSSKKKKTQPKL

On to `O=C(NCc1ccccc1)Nc1ccc2cc1OCCOCCNc1ccn3ncc-2c3n1` [compound 16], for which the ΔTm at 10 µM in test [1] was determined as 0.5 °C; in test [2] it was 4.1 °C; in test [3], 7.5 °C; in test [4], 1.5 °C; in test [5] it was 2 °C; in test [6], 1.3 °C. Besides, the ΔTm at 10 µM in test [7] was 1.2 °C; in test [8] it was 0.8 °C; in test [9], -0.4 °C.
With `O=C(NCc1ccccc1Cl)Nc1ccc2cc1OCCOCCNc1ccn3ncc-2c3n1` [compound 17], the ΔTm at 10 µM came out at 0.6 °C in test [1]; 3.9 °C in test [2]; 6.7 °C in test [3]; 1.8 °C in [4]; 1 °C in test [5]; 0.3 °C in [6]. Besides, the values for the ΔTm at 10 µM in [7], in [8] and in [9] were 1.5 °C, 0.7 °C and 0.1 °C, respectively.
In the case of `O=C(NCc1cccc(Cl)c1)Nc1ccc2cc1OCCOCCNc1ccn3ncc-2c3n1` [compound 18], the thermal shift (ΔTm) at 10 µM amounted to 1.3 °C in [1]; 3.2 °C in test [2]; 7.3 °C in [3]; 2.2 °C in test [4]; 1.6 °C in test [5]; 0.8 °C in test [6]. Also, the ΔTm at 10 µM is 3.2 °C in test [7], -0.1 °C in test [8] and 0.3 °C in test [9].
`O=C(NCc1ccc(Cl)cc1)Nc1ccc2cc1OCCOCCNc1ccn3ncc-2c3n1` [compound 19]: the ΔTm at 10 µM in [1] is 1 °C; in [2], 2.5 °C; in test [3], 7.1 °C; in test [4] it was 1.4 °C; in test [5], 1.4 °C; in [6], -0.1 °C. In addition, the results for the thermal shift (ΔTm) at 10 µM in [7], in test [8] and in test [9] were 1.8 °C, 0 °C and 0.1 °C, respectively.
As for `O=C(NCc1ccc(Cl)cc1Cl)Nc1ccc2cc1OCCOCCNc1ccn3ncc-2c3n1` [compound 20], the ΔTm at 10 µM in test [1] was 0.4 °C; in [2], 2.8 °C; in [3] it was 7.4 °C; in test [4], 1.2 °C; in test [5], 2.2 °C; in test [6], 1.6 °C. Moreover, the ΔTm at 10 µM in test [7] was determined as 3 °C; in [8] it was 0.6 °C; in test [9], 0.4 °C.
Take `O=C(NCc1ccc(Cl)cc1F)Nc1ccc2cc1OCCOCCNc1ccn3ncc-2c3n1` [compound 21]: the ΔTm at 10 µM in test [1] came out at 0.9 °C; in test [2], 2.6 °C; in test [3], 6.9 °C; in test [4], 1.8 °C; in [5], 2.7 °C; in test [6] it was 0.8 °C. The ΔTm at 10 µM in test [7] was determined as 2.8 °C; in test [8], 0.4 °C; in test [9], 0.9 °C.
Consider `Cc1cc(Cl)ccc1CNC(=O)Nc1ccc2cc1OCCOCCNc1ccn3ncc-2c3n1` [compound 23], for which the ΔTm at 10 µM in [1] was determined as 0.6 °C; in test [2] it was 2.8 °C; in test [3], 5.6 °C; in test [4] it was 1.8 °C; in test [5], 1 °C; in test [6], 0.9 °C. The ΔTm at 10 µM in test [7] turned out to be 2.3 °C; in test [8] it was 0.7 °C; in test [9] it was 0.8 °C.
`Cc1cc(Br)ccc1CNC(=O)Nc1ccc2cc1OCCOCCNc1ccn3ncc-2c3n1` [compound 24]: the thermal shift (ΔTm) at 10 µM was 0.8 °C in [1]; 2.3 °C in test [2]; 5.4 °C in test [3]; 2.6 °C in [4]; 1.4 °C in [5]; -0.2 °C in test [6]. The values for the ΔTm at 10 µM in test [7], in [8] and in [9] were 0.5 °C, 1.6 °C and 1 °C, respectively.
For `Cc1ccc(F)cc1CNC(=O)Nc1ccc2cc1OCCOCCNc1ccn3ncc-2c3n1` [compound 26], the ΔTm at 10 µM in [1] was determined as 0.8 °C; in [2] it was 3.3 °C; in [3] it was 6.4 °C; in test [4] it was 1.9 °C; in test [5], 0.9 °C; in test [6], 0 °C. The ΔTm at 10 µM turned out to be 1 °C in [7], 1.6 °C in [8] and 0.5 °C in [9].
As to `O=C(NCc1ccccc1C(F)(F)F)Nc1ccc2cc1OCCOCCNc1ccn3ncc-2c3n1` [compound 27], the ΔTm at 10 µM in test [1] is 1.2 °C; in [2], 3.9 °C; in test [3], 7 °C; in test [4] it was 3.5 °C; in test [5], 1.4 °C; in [6] it was -0.1 °C. Moreover, the ΔTm at 10 µM in [7] stood at 1.1 °C; in test [8] it was 2.3 °C; in test [9], 0.4 °C.
Turning to `O=C(NCc1ccc(C(F)(F)F)cc1)Nc1ccc2cc1OCCOCCNc1ccn3ncc-2c3n1` [compound 28], the thermal shift (ΔTm) at 10 µM in test [1] stood at 1 °C; in [2], 3.3 °C; in test [3] it was 7.6 °C; in [4] it was 3.1 °C; in [5] it was 2.1 °C; in test [6] it was 0.3 °C. Besides, the ΔTm at 10 µM in test [7] was determined as 1 °C; in [8] it was 2.7 °C; in [9], 0.6 °C.

As usually defined, the ΔTm is the shift of the melting midpoint relative to a reference.
